Columns and labels:
Type in all cases: cell-based
[1] = test system: five representative oral bacterial species: A. viscosus, L. casei, S. oralis, V. parvula and F. nucleatum; experiment: Example 1: bacterial growth in the supernatant media of healthy biofilm model (absorbance); details: for % bacterial reduction (A): compound 0.01 wt. %, 48 hours, reduction in absorbance of supernatant media relative to disks treated with media alone
Experimental: (§1) 0.5″ Ca^2+-deficient hydroxyapatite (HAP) disks were coated with UV-sterilized human saliva overnight.
(§2) After 1 hour, excess treatment was removed by aspiration and disks were inoculated with 1 ml of bacteria from a continuous culture system at an OD(600) of about 0.2. The continuous culture system was maintained for approximately three months at 37° C. and contained five representative oral bacterial species: A. viscosus, L. casei, S. oralis, V. parvula and F. nucleatum. Previous work has shown this mix to form repeatable biofilms that can serve as a representation of the more complex mix of 500-700 bacterial species found in dental plaque.
(§3) The inoculated scHAP disks were incubated for 48 hours at 37° C. to allow a biofilm to form on them. After 48 hours of biofilm formation, disks were transferred to test tubes containing 1 ml of 0.25% trypsin solution. Disks were incubated at 37° C. with shaking for 45 minutes. The tubes were briefly vortexed to resuspend the bacteria, and the supernatants were then transferred to a fresh 24 well plate. Plates were […] for 2 minutes to pellet any residual HAP flakes and the supernatants were removed to fresh plates so that their absorbance could be measured at 610 nm. All samples were tested in triplicate and the average of the three wells was determined.
In addition to the absorbance of the trypsin-digested resuspended bacterial solution, similar absorbance measurements were also taken of the final supernatant media after the biofilms were allowed to grow for 48 hours.
The effect of 2-deoxy-D-glucose on bacterial growth in the supernatant media in which the biofilms were grown is shown in the table below.

[2] = test system: biofilm of five representative oral bacterial species: A. viscosus, L. casei, S. oralis, V. parvula and F. nucleatum; experiment: Example 1: healthy biofilm formation on saliva-coated HAP disks (absorbance at 610 nm after trypsin); details: for biofilm inhibition (in words): 0.01 wt. %, Example 1; for % biofilm inhibition (B) / % biofilm inhibition efficiency (C): compound 0.01 wt. %; for % biofilm inhibition (B): 48 hours biofilm, reduction in absorbance relative to disks treated with media alone; for % biofilm inhibition efficiency (C): C=B/A×100%
Experimental: as §1, §2, §3

[3] = test system: Actinomyces naeslundii (ATCC 43146), Lactobacillus casei (ATCC 334), Streptococcus oralis (ATCC 35037), Veillonella parvula (ATCC 17745) and Fusobacterium …; experiment: Example 2: planktonic growth (OD600) in healthy biofilm model; details: for % planktonic growth inhibition: compound 0.01 wt. %, 24 hours, OD600
Experimental: (§4) A similar test protocol to Example 1 was performed and tested for its effect in the inhibition of planktonic growth and inhibition of biofilm formation
(§5) The species used for biofilm formation were: Actinomyces naeslundii (ATCC 43146). Lactobacillus casei (ATCC 334), Streptococcus oralis (ATCC 35037), Veillonella parvula (ATCC 17745) and Fusobacterium nucleatum (ATCC 10953). Strains were grown under anaerobic conditions at 37° C. for 72 hours. All the bacteria were grown on an anaerobic blood agar.
(§6) The formula for the anaerobic blood agar was as follows: 52 g/l Brain Heart Infusion Agar (DIFCO), and after autoclaving the following products are added: 1 ml/l baemin from a solution 5 mg/ml, 1 ml/l of vitamin K1 from a solution 100 μg/ml and 50 ml of horse blood. A 24 well microtiter for cell culture (Nalgene Nunc International, Denmark) was used to generate in vitro dental biofilms.
(§7) Wells were filled with 800 μl of the mucin growth medium (MGM), a modification of the medium used by Kinniment et al. (Kinniment, S. L., Wimpenny. J. W., Adams, D., and Marsh, P. D. (1996) Development of a steady-state oral microbial biofilm community using the constant-depth film fermenter. Microbiology 142 (Pt 3): 631-638) which presents a high concentration of proteins: 2.5 g/l mucin, 5 g/l Heart Infusion Broth (DIFCO), 2.0 g/l sodium bicarbonate, 1.0 g/l yeast extract and 0.1 g/l cysteine and 4 ml resazurin from a solution 25 mg/100 ml.
The pH is adjusted to 7.4 prior to autoclaving. After autoclaving the following products was added: 1 ml/l haemin from a solution 5 mg/ml and 1 mL/l of vitamin K1 from a solution 100 μg/ml. Sterile hydroxyapatite discs of 7 mm×1.8 mm (Clarkson Inc., USA) was later placed into the wells. […]
(§8) After 24 hours planktonic phase was saved to measure growth at OD600 and hydroxyapatite disks were washed with sterile PBS and stained with safranine 0.1% for 15 minutes. […] Absorbance at 492 nm measures the amount of safranine retained by the biofilm.

[4] = test system: biofilm of Actinomyces naeslundii (ATCC 43146), Lactobacillus casei (ATCC 334), Streptococcus oralis (ATCC 35037), Veillonella parvula (ATCC 17745) and …; experiment: Example 2: biofilm formation on hydroxyapatite discs (safranine staining, absorbance at 492 nm); details: for biofilm inhibition (in words): 0.01 wt. %, Example 2; for % biofilm inhibition: compound 0.01 wt. %, 24 hours, safranine, absorbance at 492 nm
Experimental: as §4, §5, §6, §7
The pH is adjusted to 7.4 prior to autoclaving. After autoclaving the following products was added: 1 ml/l haemin from a solution 5 mg/ml and 1 mL/l of vitamin K1 from a solution 100 μg/ml. Sterile hydroxyapatite discs of 7 mm×1.8 mm (Clarkson Inc., USA) was later placed into the wells. In order to form the acquired pellicle the discs were allowed to stay at least 60 hours in contact with the medium under anaerobic conditions prior inoculation. This period of pre-incubation allows checking for possible contaminations and adjusts the final pH to 7.5.
Each of the strains grown on agar was resuspended in MGM medium until reach a turbidity of a McFarlan 3 (approximately 10^8 CFU/ml). Finally, 1 ml of each suspension from the different strains was mixed and 50 μl of this suspension was added into each of the wells in the microtiter plate. Microtiter plates were incubated under anaerobic conditions at 37° C. in an anaerobic chamber. A control of growth was performed in parallel. […]
as §8

[5] = test system: pathogenic biofilm spiked with P. gingivalis; experiment: Example 3: pathogenic biofilm model spiked with P. gingivalis; details: overall conclusion, no data given
Experimental: A similar experiment was conducted using a pathogenic biofilm model. Biofilms were inoculated as above for the healthy biofilms. Initial bacterial attachment and biofilm formation was allowed to proceed for 4 hours. After the initial 4 hours, each biofilm was spiked with 100 μL of an overnight culture of P. gingivalis. Biofilms were then allowed to grow for another 48 hours prior to trypsin treatment, and absorbance measurements were taken as described above.

Compound | bacterial reduction (in words) ([1]; 0.01 wt. %, Example 1) | % bacterial reduction (A) [1] [%] | biofilm inhibition (in words) [2] | % biofilm inhibition (B) [2] [%] | % biofilm inhibition efficiency (C) [2] | planktonic growth inhibition (in words) ([3]; 0.01 wt. %, Example 2) | % planktonic growth inhibition [3] [%] | biofilm inhibition (in words) [4] | % biofilm inhibition [4] [%] | inhibition of oral biofilm formation (in words) [5]
Cl.NCC(O)CCC(N)C(=O)O (racemic) [DL-5-hydroxylysine HCl, reference compound] | significant bacterial reduction | 21.45 | negligible biofilm inhibition | 5.85 | 27.27% | no planktonic growth inhibition | 0.00 | minimal biofilm inhibition | 5.91 | –
O=CC[C@@H](O)[C@H](O)[C@H](O)CO [2-deoxy-D-glucose] | – | 9.81 | – | 30.54 | 311.31% | – | – | – | – | –
O=C[C@H](F)[C@@H](O)[C@H](O)[C@H](O)CO [2-fluoro-2-deoxy-D-glucose] | – | 0.00 | effective and efficient inhibitor of biofilm formation | 46.50 | >>>1000% | – | – | – | – | very good inhibitors of oral biofilm formation
C[C@@H](O)[C@@H](O)[C@H](O)[C@@H](O)C=O [6-deoxy-D-glucose] | – | 1.54 | effective and efficient inhibitor of biofilm formation | 25.33 | 1644.81% | – | – | – | – | very good inhibitors of oral biofilm formation
CCCCCCCCCCCCCCCC[n+]1ccccc1 [CPC, cetylpyridinium chloride] | – | 65.44 | – | – | – | – | – | – | – | –
N[C@H](C=O)[C@@H](O)[C@H](O)[C@H](O)CO [D-mannosamine, 2-amino-2-deoxy-D-mannose] | – | – | – | – | – | – | 0.00 | effective inhibition of biofilm formation | 34.01 | –
Oc1cc(Cl)ccc1Oc1ccc(Cl)cc1Cl [Triclosan] | – | 85.63 | – | – | – | – | – | – | – | –
Benzalkonium chloride [reference compound] | – | 88.21 | – | 52.58 | 59.61% | – | – | – | – | –
